Reference: patent US20240279202A1 (NURIX THERAPEUTICS, INC., priority 2021, published 2024)

Target: T1, ITK (Mus musculus, UniProt Q03526)
T1 construct: mice were sacrificed and splenocytes were isolated and used to prepare protein lysates; from tissue; host or cells: mouse splenocytes (spleen) after oral dosing
T1 sequence (Q03526 1-625): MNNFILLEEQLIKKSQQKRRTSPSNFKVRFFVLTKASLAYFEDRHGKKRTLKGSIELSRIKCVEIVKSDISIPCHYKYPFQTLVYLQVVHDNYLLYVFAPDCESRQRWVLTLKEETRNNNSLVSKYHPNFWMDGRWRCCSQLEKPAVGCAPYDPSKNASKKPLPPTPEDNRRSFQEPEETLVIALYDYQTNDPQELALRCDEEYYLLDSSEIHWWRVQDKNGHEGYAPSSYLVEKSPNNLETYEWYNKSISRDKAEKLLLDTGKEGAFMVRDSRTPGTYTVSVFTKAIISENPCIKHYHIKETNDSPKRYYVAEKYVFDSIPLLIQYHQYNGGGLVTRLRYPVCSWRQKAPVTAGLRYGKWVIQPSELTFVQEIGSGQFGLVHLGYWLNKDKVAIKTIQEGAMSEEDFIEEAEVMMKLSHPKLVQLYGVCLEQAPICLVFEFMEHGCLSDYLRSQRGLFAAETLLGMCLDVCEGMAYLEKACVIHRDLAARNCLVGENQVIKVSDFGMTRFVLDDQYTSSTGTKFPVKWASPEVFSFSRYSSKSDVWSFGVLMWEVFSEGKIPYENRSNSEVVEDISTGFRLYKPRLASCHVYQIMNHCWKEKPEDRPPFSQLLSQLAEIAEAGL
Test: Mouse PD assay for ITK degradation (Western blot, splenocytes after oral administration)
Format: in vivo
Details: for ITK (%) 90 mpk PO, 6 h: percent ITK remaining in mouse splenocytes relative to vehicle; for ITK degradation in vivo at 6 hours (FIG. 2): 90 mg/kg PO
Protocol: Compounds 1, 3, 7, and 42 were formulated and administered at 90 mg/kg to mice by oral gavage (PO). Blood was collected at defined time points (after 1, 2, and 6 hours) after compounds administration to determine PK parameters. Concentration increased through 6 hours. Six hours later mice were sacrificed and splenocytes were isolated and used to prepare protein lysates. Total protein levels were determined in the lysates using the BCA assay according to standard methods. Equal amounts of protein were then analyzed by Western blot to determine the level of ITK expression in each sample. ITK band intensities were measured using Alpha View software and the percent of ITK remaining in each test animal was determined relative to the mean of ITK levels in vehicle control samples.
After 6 hours, splenocytes cells were harvested. ITK was evaluated by Western blotting.
Compounds 43, 4, 5, 10, 11, 12, 44, 14, 3, and 13 were administered to mice orally. After 6 hours, splenocytes cells were harvested. ITK was evaluated by Western blotting. Media was removed and cell pellets were lysed in 100 uL lysis buffer (RIPA buffer (Fisher, PI89901), cOmplete Mini EDTA-free protease inhibitor (Sigma 11836170001), Protease Inhibitor Cocktail (Sigma, P2714), Phosphatase Inhibitor Cocktail 2 and 3 (Sigma, P5726 and P0044), Benzonase (Sigma, E1014)). Cells were lysed overnight at −20° C. Following thaw, cells were centrifuged for 10 min at 13000 rpm, then transferred to new tube. Protein levels were determined by BCA Assay performed according to manufacturer's protocol (EMID Millipore, cat. no. 71285-3). Samples were combined with (4×) LDS Sample Buffer and (10×) Reducing Agent and H2O to equally load 20 ug protein per lane of a 26-well NuPAGE 4-12% Bis-Tris protein gel (1.0 mm, Thermo cat. no. NP0326). Samples were separated by running gels at constant 150 V in NuPAGE MES SDS Running Buffer. Following electrophoresis, proteins were transferred to nitrocellulose membranes using an iBlot Gel Transfer Device and iBlot Gel Transfer Stacks (Thermo cat. no. IB21001 and IB301001) and transfer method P3 (20V for 7 min). Membranes were blocked for 1 hr in 5% milk solution (TBS (0.2% Tween-20)). Following blocking, membranes were incubated with primary antibody (1:1000 CST ITK (2F12) #2380) overnight at 4° C. with gentle shaking. Blots were washed 2× in TBS (0.2% Tween-20), 30 min per wash. Following washes, blots were incubated in secondary HRP-conjugated antibody (Promega anti-Mouse IgG (H+L) HRP cat. no. W4021), 1:5000 in 5% milk solution (TBS (0.2% Tween-20)), for 1 hr at room temperature with gentle shaking. Blots were washed 2× in TBS (0.2% Tween-20), 30 min per wash. Blots were incubated with 1:1 mix of ECL reagents 1 & 2 (Amersham ECL Western Blotting Detection Reagent, cat. no. RPN2106) for 2 min at room temperature. Bands were visualized using a Protein Simple imager. Blots were then re-probed with a combination of anti-actin antibody (Sigma Monoclonal Mouse Anti-3-Actin (clone AC-15), cat. no. A5441) and secondary H1RP-conjugated antibody (Promega anti-Mouse IgG (H+L) HRP, cat. no. W4021) and similar steps were taken for incubation, wash, detection and visualization steps as above. The data was analyzed using Alpha View software. The densitometric reading for each sample band was normalized to that of the corresponding actin band per lane. Approximate % ITK remaining per sample was calculated as follows: […]
Once % ITK remaining has been calculated for each sample, groups are averaged together to show an means % ITK normalized to actin and relative to control.
Compounds 16, 17, and 18 were administered to mice orally. After 6 hours or 24 hours, splenocytes cells were harvested. ITK was evaluated by Western blotting. Plasma concentrations were determined by LC/MS/MS. Plasma samples were protein precipitated by addition of 100 μl of acetonitrile containing 50 ng/ml of internal standard. The resulting mixture was vortexed and centrifuged at 4000 RPM for 5 minutes. […]

[1] = mice, splenocytes, Western blot
[2] = mice, oral, splenocytes, Western blot

Row | SMILES | ITK (%) 90 mpk PO, 6 h | ITK degradation in vivo at 6 hours (FIG. 2) [1] | ITK degradation in vivo at 6 hours (FIG. 3A, FIG. 4A) [2] | also measured
1 | CN(c1ccc2cc(-c3n[nH]c4c3C[C@@H]3C(F)(F)[C@]3(C)C4)[nH]c2c1)C(=O)[C@H]1C[C@]2(CCN(c3ccc4c(c3)C(=O)N([C@H]3CCC(=O)NC3=O)C4=O)C2)C1 (racemic) [Compound 71b, (2s,4s)-N-[2-[(4aS,5aR)-5,5-difluoro-5a-methyl-1H,4H,4aH,6H-cyclopropa[f]indazol-3-yl]-1H-indol-6-yl]-6-[2-[(3RS)-2,6-dioxopiperidin-3-yl]-1,3-dioxoisoindol-5-yl]-N-methyl-6-azaspiro[3.4]octane-2-carboxamide] | 30% | – | – | –
2 | CN(C(=O)CC[C@H]1CCN(c2ccc3c(c2)C(=O)N(C2CCC(=O)NC2=O)C3=O)C1)c1ccc2cc(-c3n[nH]c4c3C[C@@H]3C(F)(F)[C@]3(C)C4)[nH]c2c1 (stereo in doubt) [Compound 67, N-(2-((4aS,5aR)-5,5-difluoro-5a-methyl-1,4,4a,5,5a,6-hexahydrocyclopropafindazol-3-yl)-1H-indol-6-yl)-3-((3R)-1-(2-(2,6-dioxopiperidin-3-yl)-1,3-dioxoisoindolin-5-yl)pyrrolidin-3-yl)-N-methylpropanamide] | – | – | – | ITK (%) 90 mpk PO, 6 h (90 mg/kg): 190%
3 | CN(C(=O)CC[C@H]1CCN(c2ccc3c(c2)C(=O)N(C2CCC(=O)NC2=O)C3=O)C1)c1ccc2cc(-c3n[nH]c4c3C[C@@H]3C(F)(F)[C@]3(C)C4)[nH]c2c1 (stereo in doubt) [Compound 68] | – | – | – | ITK (%) 90 mpk PO, 6 h (90 mg/kg): 240%
4 | CN(C(=O)CCC1CCN(c2ccc3c(c2)C(=O)N(C2CCC(=O)NC2=O)C3=O)C1)c1ccc2cc(-c3n[nH]c4c3CCC(C)(C)C4)[nH]c2c1 (centres unmarked) [Compound 1, N-(2-(6,6-dimethyl-4,5,6,7-tetrahydro-1H-indazol-3-yl)-1H-indol-6-yl)-3-(1-(2-(2,6-dioxopiperidin-3-yl)-1,3-dioxoisoindolin-5-yl)pyrrolidin-3-yl)-N-methylpropanamide] | 153% | degraded ITK in vivo | – | –
5 | CN(C(=O)CCN1CCN(c2ccc3c(c2)C(=O)N(C2CCC(=O)NC2=O)C3=O)CC1)c1ccc2cc(-c3n[nH]c4c3CCC(C)(C)C4)[nH]c2c1 (centres unmarked) [Compound 2, N-(2-(6,6-dimethyl-4,5,6,7-tetrahydro-1H-indazol-3-yl)-1H-indol-6-yl)-3-(4-(2-(2,6-dioxopiperidin-3-yl)-1,3-dioxoisoindolin-5-yl)piperazin-1-yl)-N-methylpropanamide] | 49.3% | – | – | –
6 | C[C@@H](C(=O)N(C)c1ccc2cc(-c3n[nH]c4c3CCC(C)(C)C4)[nH]c2c1)N1CCN(CC2CCN(c3cccc4c3n(C)c(=O)n4C3CCC(=O)NC3=O)CC2)CC1 (stereo partly drawn) [Compound 3, (2S)—N-(2-(6,6-dimethyl-4,5,6,7-tetrahydro-1H-indazol-3-yl)-1H-indol-6-yl)-2-(4-((1-(1-(2,6-dioxopiperidin-3-yl)-3-methyl-2-oxo-2,3-dihydro-1H-benzo[d]imidazol-4-yl)piperidin-4-yl)methyl)piperazin-1-yl)-N-methylpropanamide] | 24% | degraded ITK in vivo | degraded ITK in vivo | ITK degradation in vivo at 24 hours (FIG. 3A, FIG. 4A) (mice, oral, splenocytes, Western blot, 24 hours): degraded ITK in vivo
7 | C[C@@H](C(=O)N(C)c1ccc2cc(-c3n[nH]c4c3CCC(C)(C)C4)[nH]c2c1)N1CCN(C[C@@H]2CCN(c3ccc4c(c3)n(C)c(=O)n4C3CCC(=O)NC3=O)C2)CC1 (stereo partly drawn) [Compound 4, (2S)—N-(2-(6,6-dimethyl-4,5,6,7-tetrahydro-1H-indazol-3-yl)-1H-indol-6-yl)-2-(4-(((3S)-1-(1-(2,6-dioxopiperidin-3-yl)-3-methyl-2-oxo-2,3-dihydro-1H-benzo[d]imidazol-5-yl)pyrrolidin-3-yl)methyl)piperazin-1-yl)-N-methylpropanamide] | 75% | – | degraded ITK in vivo | –
8 | C[C@@H](C(=O)N(C)c1ccc2cc(-c3n[nH]c4c3CCC(C)(C)C4)[nH]c2c1)N1CCN(C[C@H]2CCN(c3ccc4c(c3)n(C)c(=O)n4C3CCC(=O)NC3=O)C2)CC1 (stereo partly drawn) [Compound 5, (2S)—N-(2-(6,6-dimethyl-4,5,6,7-tetrahydro-1H-indazol-3-yl)-1H-indol-6-yl)-2-(4-(((3R)-1-(1-(2,6-dioxopiperidin-3-yl)-3-methyl-2-oxo-2,3-dihydro-1H-benzo[d]imidazol-5-yl)pyrrolidin-3-yl)methyl)piperazin-1-yl)-N-methylpropanamide] | 97% | – | degraded ITK in vivo | –
9 | C[C@@H](C(=O)N(C)c1ccc2cc(-c3n[nH]c4c3CCC(C)(C)C4)[nH]c2c1)N1CCN(CC2CCN(c3ccc4c(c3)n(C)c(=O)n4C3CCC(=O)NC3=O)CC2)CC1 (stereo partly drawn) [Compound 6, (2S)—N-(2-(6,6-dimethyl-4,5,6,7-tetrahydro-1H-indazol-3-yl)-1H-indol-6-yl)-2-(4-((1-(1-(2,6-dioxopiperidin-3-yl)-3-methyl-2-oxo-2,3-dihydro-1H-benzo[d]imidazol-5-yl)piperidin-4-yl)methyl)piperazin-1-yl)-N-methylpropanamide] | 105% | – | – | –
10 | C[C@@H](C(=O)N(C)c1ccc2cc(-c3n[nH]c4c3CCC(C)(C)C4)[nH]c2c1)N1CCN(CC2CCN(c3ccc(C(=O)NC4CCC(=O)NC4=O)nc3)CC2)CC1 (stereo partly drawn) [Compound 7, 5-(4-((4-((S)-1-((2-(6,6-dimethyl-4,5,6,7-tetrahydro-1H-indazol-3-yl)-1H-indol-6-yl)(methyl)amino)-1-oxopropan-2-yl)piperazin-1-yl)methyl)piperidin-1-yl)-N-(2,6-dioxopiperidin-3-yl)picolinamide] | 100% | degraded ITK in vivo | – | –
